Source: article PMC6272684, “Synthesis, Antiproliferative and Antifungal Activities of 1,2,3-Triazole-Substituted Carnosic Acid and Carnosol Derivatives” (Molecules, 2015)
pIC50: −log10 of the molar value.

Tests used:
[1] = system: gastric epithelial adenocarcinoma (AGS) cells; assay: Antiproliferative assay (MTT reduction, 3 days); format: cell-based, human; conditions: >100 µM considered inactive, read-out: IC50 ± SD, AGS
Description: The antiproliferative activity towards the following human cell lines was determined: normal lung fibroblasts (MRC-5), gastric epithelial adenocarcinoma (AGS), lung cancer (SK-MES-1) and bladder carcinoma (J82) cells. […] When comparing the pairs 3–4, 5–6 and 7–8 differing in one CH2 unit in the linker, the activity decreased with linker length.
All human cell lines used in this work were purchased from the American Type Culture Collection (ATCC, Manasas, VA, USA). Normal lung MRC-5 fibroblasts (CCL-171), SK-MES-1 lung cancer cells (HTB-58) and J82 bladder carcinoma cells (HTB-1) were grown as monolayers in minimum essential Eagle medium (MEM) with Earles’s salts, 2 mM L-glutamine and 1.5 g∙L^−1 sodium bicarbonate. Gastric adenocarcinoma AGS cells (CRL-1739) were grown as monolayers in Ham F-12 medium containing 1 mM L-glutamine and 1.5 g∙L^−1 sodium bicarbonate. All media were supplemented with 10% heat-inactivated FBS, 100 IU∙mL^−1 penicillin and 100 µg∙mL^−1 streptomycin. Cells were grown in a humidified incubator with 5% CO2 in air at 37 °C. For the antiproliferative assay, cells were plated at a density of 5 × 10^4 cells∙mL^−1. Cells were seeded in 96-well plates (100 µL∙well^−1). One day after seeding, cells were treated with medium containing the compounds at concentrations ranging from 0 up to 100 µM during 3 days. The compounds were dissolved in DMSO (1% final concentration) and complete medium. Untreated cells (medium containing 1% DMSO) were used as 100% viability controls. […] Each concentration was tested in sextuplicate and experiments were repeated 2 times. Cell viability was determined by means of the MTT reduction assay at the end of the incubation with the products. The results were transformed to percentage of controls and the IC50 value was obtained adjusting the dose-response curve to a sigmoidal model. The software used was OriginPro 8.1 [30].

C. albicans ATCC 10231 = assay: Antifungal broth microdilution (CLSI M27-A3), growth inhibition; format: cell-based, Candida albicans; conditions: for MIC50 (minimum concentration to inhibit 50% of fungal growth), C. albicans: C. albicans ATCC 10231
Description: (§1) The antifungal properties of compounds 1–24 against two clinical important fungal species, C. albicans ATCC 10231 and C. neoformans ATCC 32264 were investigated. Results were expressed as the percentages of inhibition of each fungus in the range 250–3.9 μg∙mL^−1 by using the standardized microbroth dilution method M-27A3 of Clinical and Laboratory Standards Institute which assures reliable and reproducible results.
(§2) For the antifungal evaluation, standardized strains from the American Type Culture Collection (ATCC), Rockville, MD, USA, were used. The microorganisms included yeasts (Candida albicans ATCC 10231 and Cryptococcus neoformans ATCC 32264). Strains were grown on Sabouraud-chloramphenicol agar slants for 48 h at 30 °C, maintained on slopes of Sabouraud-dextrose agar (SDA, Oxoid), and subcultured every 15 days to prevent pleomorphic transformations. Inocula of cell or spore suspensions were obtained according to reported procedures and adjusted to 1–5 × 10^3 cells/spores with colony forming units (CFU)/mL [29].
(§3) Broth microdilution techniques were performed in 96-well microplates according to the Clinical and Laboratory Standards Institute Reference Method for Broth Dilution Antifungal Susceptibility Testing of Yeasts, Approved Standard M27-A3 [29]. For the assay, compound test wells (CTWs) were prepared with stock solutions of each compound in DMSO (maximum concentration ≤1%), diluted with RPMI-1640, to final concentrations of 250–3.9 μg∙mL^−1. An inoculum suspension (100 μL) was added to each well (final volume in the well = 200 μL). A growth control well (GCW) (containing medium, inoculum, and the same amount of DMSO used in a CTW, but compound-free) and a sterility control well (SCW) (sample, medium, and sterile water instead of inoculum) were included for each fungus tested. Microtiter trays were incubated in a moist, dark chamber at 30 °C for 48 h for both yeasts. Microplates were read in a VERSA Max microplate reader (Molecular Devices, Sunnyvale, CA, USA). Amphotericin B (Sigma-Aldrich) was used as positive control. Tests were performed in triplicate. Reduction of growth for each compound concentration was calculated as follows: % of inhibition = 100 − (OD 405 CTW − OD 405 SCW)/(OD 405 GCW − OD 405 SCW). The means ± SEM were the results of triplicate tests. Three endpoints were defined from the assay explained above and the dose-response curves. Minimum Inhibitory concentration (MIC) resulting in total fungal growth inhibition was named MIC100 while MIC50 was defined as the minimum concentration that inhibits 50% of the fungal growth.

C. neoformans ATCC 32264 = assay: as above; format: cell-based, Cryptococcus neoformans; conditions: for MIC50 (minimum concentration to inhibit 50% of fungal growth), C. neoformans: C. neoformans ATCC 32264
Description: as §1, §2, §3

Row | pIC50 [1] | MIC50 (minimum concentration to inhibit 50% of fungal growth), C. albicans (C. albicans ATCC 10231) | MIC50 (minimum concentration to inhibit 50% of fungal growth), C. neoformans (C. neoformans ATCC 32264) | Structure (SMILES) | Inhibition percentage against C. albicans ATCC 10231 (C. albicans ATCC 10231; 3.9 μg∙mL^−1, 48 h) | Inhibition percentage against C. albicans ATCC 10231 (C. albicans ATCC 10231; 7.8 μg∙mL^−1, 48 h) | Inhibition percentage against C. albicans ATCC 10231 (C. albicans ATCC 10231; 15.6 μg∙mL^−1, 48 h) | Inhibition percentage against C. albicans ATCC 10231 (C. albicans ATCC 10231; 62.5 μg∙mL^−1, 48 h) | Inhibition percentage against C. albicans ATCC 10231 (C. albicans ATCC 10231; 125 μg∙mL^−1, 48 h) | Inhibition percentage against C. albicans ATCC 10231 (C. albicans ATCC 10231; 250 μg∙mL^−1, 48 h) | Inhibition percentage against C. albicans ATCC 10231 (C. albicans ATCC 10231; 31. μg∙mL^−1, 48 h) | Antifungal activity against C. albicans (in words) (C. albicans ATCC 10231; at the assayed concentrations (250–3.9 μg∙mL^−1)) | Inhibition percentage against C. neoformans ATCC 32264 (C. neoformans ATCC 32264; 3.9 μg∙mL^−1, 48 h) | Inhibition percentage against C. neoformans ATCC 32264 (C. neoformans ATCC 32264; 7.8 μg∙mL^−1, 48 h) | Inhibition percentage against C. neoformans ATCC 32264 (C. neoformans ATCC 32264; 15.6 μg∙mL^−1, 48 h) | Inhibition percentage against C. neoformans ATCC 32264 (C. neoformans ATCC 32264; 31.2 μg∙mL^−1, 48 h) | Inhibition percentage against C. neoformans ATCC 32264 (C. neoformans ATCC 32264; 62.5 μg∙mL^−1, 48 h) | Inhibition percentage against C. neoformans ATCC 32264 (C. neoformans ATCC 32264; 125 μg∙mL^−1, 48 h) | Inhibition percentage against C. neoformans ATCC 32264 (C. neoformans ATCC 32264; 250 μg∙mL^−1, 48 h)
1 | 4.05 | >250 µg/mL | 250 µg/mL | COC(=O)C12CCCC(C)(C)C1CCc1cc(C(C)C)c(OC(=O)CCc3cn(Cc4ccccc4)nn3)c(OC(=O)CCc3cn(Cc4ccccc4)nn3)c12 (stereo not drawn) [Compound 11, Methyl(11,12-O-(3-(1-benzyl-1H-1,2,3-triazol-4-yl)-propanoyloxy)-abieta-8,11,13-triene)-20-oate] | 1.8 ± 0.1% | 1.9 ± 0.5% | 3.5 ± 0.7% | 11.8 ± 0.3% | 23.3 ± 2.1% | 45.7 ± 3.0% | 5.5 ± 1.7% | weak effect | 0.0% | 2.7 ± 0.9% | 13.3 ± 2.0% | 14.2 ± 1.3% | 19.4 ± 2.1% | 38.3 ± 2.9% | 57.2 ± 2.4%
2 |  | >250 µg/mL | >250 µg/mL | CC(C)c1cc2c(c(OC(=O)CCCc3cn(Cc4ccccc4)nn3)c1OC(=O)CCCc1cn(Cc3ccccc3)nn1)C13CCCC(C)(C)C1CC2OC3=O (stereo not drawn) [Compound 20, (7β)-11,12-O-(4-(1-benzyl-1H-1,2,3-triazol-4-yl)-butanoyloxy)-7,20-epoxyabieta-8,11,13-trien-20-one] | 0.7 ± 0.1% | 1.6 ± 0.2% | 3.0 ± 0.4% | 10.9 ± 1.6% | 21.4 ± 3.4% | 34.5 ± 0.5% | 4.3 ± 0.4% |  | 0.0% | 0.0% | 0.0% | 2.7 ± 2.7% | 10.4 ± 0.2% | 14.5 ± 1.2% | 22.0 ± 1.0%
3 |  | >250 µg/mL | >250 µg/mL | CC(C)c1cc2c(c(OC(=O)CCc3cn(Cc4ccc(Br)cc4)nn3)c1OC(=O)CCc1cn(Cc3ccc(Br)cc3)nn1)C13CCCC(C)(C)C1CC2OC3=O (stereo not drawn) [Compound 21, (7β)-11,12-O-(3-(1-(4-bromobenzyl)-1H-1,2,3-triazol-4-yl)-propanoyloxy)-7,20-epoxyabieta-8,11,13-trien-20-one] | 0.0% | 0.0% | 2.6 ± 0.6% | 4.4 ± 1.3% | 6.6 ± 1.1% | 8.6 ± 2.0% | 3.5 ± 0.6% |  | 1.2 ± 0.6% | 6.7 ± 0.3% | 17.9 ± 0.2% | 18.9 ± 0.7% | 19.2 ± 0.2% | 28.8 ± 0.4% | 40.0 ± 0.3%
4 |  | >250 µg/mL | 125 µg/mL | CC(C)c1cc2c(c(OC(=O)CCCc3cn(Cc4ccc(Br)cc4)nn3)c1OC(=O)CCCc1cn(Cc3ccc(Br)cc3)nn1)C13CCCC(C)(C)C1CC2OC3=O (stereo not drawn) [Compound 22, (7β)-11,12-O-(4-(1-(4-bromobenzyl)-1H-1,2,3-triazol-4-yl)-butanoyloxy)-7,20-epoxyabieta-8,11,13-trien-20-one] | 0.0% | 2.9 ± 0.7% | 5.1 ± 0.4% | 7.0 ± 1.0% | 10.1 ± 0.8% | 12.5 ± 2.2% | 5.9 ± 0.2% |  | 0.0% | 4.7 ± 0.8% | 4.8 ± 0.2% | 7.6 ± 0.9% | 28.5 ± 1.3% | 52.3 ± 2.3% | 
5 |  | >250 µg/mL | >250 µg/mL | CC(C)c1cc2c(c(OC(=O)CCCc3cn(Cc4ccc([N+](=O)[O-])cc4)nn3)c1OC(=O)CCCc1cn(Cc3ccc([N+](=O)[O-])cc3)nn1)C13CCCC(C)(C)C1CC2OC3=O (stereo not drawn) [Compound 24, (7β)-11,12-O-(4-(1-(4-nitrobenzyl)-1H-1,2,3-triazol-4-yl)-butanoyloxy)-7,20-epoxyabieta-8,11,13-trien-20-one] | 0.0% | 0.0% | 0.0% | 4.8 ± 0.6% | 14.3 ± 2.0% | 29.8 ± 1.9% | 3.4 ± 0.5% |  | 4.9 ± 1.4% | 15.4 ± 0.1% | 21.0 ± 0.1% | 24.3 ± 0.5% | 27.3 ± 0.7% | 31.7 ± 1.6% | 45.8 ± 2.0%
